Test results reported in patent US20230210902A1, “SARS-COV-2-SPECIFIC T CELLS” (priority 2020, published 2023).

System: CTLs from Cas9 control and NR3C1 KO groups
Test: Annexin V apoptosis assay with dexamethasone
Type: cell-based, human
Conditions: 200 µM, 72 hours
Experimental: Annexin V apoptosis assay was performed to evaluate the effect of dexamethasone on the viability of CTLs from Cas9 control and NR3C1 KO groups. CTLs from both groups were treated with 200 µM dexamethasone (Sigma) for 72 hours. Cells were then collected, washed with annexin V buffer, and stained with annexin V (V500; BD Biosciences) and live/dead viability dye (efluor 660; Invitrogen) in addition to CD3 APC Cy7 (Biolegend, Clone HIT3A), CD4 APC (E Biosciences, Clone SK3), and CD8 PerCP Cy5.5 (Biolegend, Clone SK1). The proportion of apoptotic (positive for annexin V) and dead CTLs (positive for live/dead stain) was determined by flow cytometry.

SMILES: C[C@@H]1C[C@H]2[C@@H]3CCC4=CC(=O)C=C[C@]4(C)[C@@]3(F)[C@@H](O)C[C@]2(C)[C@@]1(O)C(=O)CO [Dex, dexamethasone]
- viability of control Cas9 COVID-19 CTLs: absence of viable cells
